# Biological target: T1, human RORgT (Homo sapiens, UniProt P51449)
# T1 construct: expressed in transfected cells
# T1 sequence (P51449 267-516): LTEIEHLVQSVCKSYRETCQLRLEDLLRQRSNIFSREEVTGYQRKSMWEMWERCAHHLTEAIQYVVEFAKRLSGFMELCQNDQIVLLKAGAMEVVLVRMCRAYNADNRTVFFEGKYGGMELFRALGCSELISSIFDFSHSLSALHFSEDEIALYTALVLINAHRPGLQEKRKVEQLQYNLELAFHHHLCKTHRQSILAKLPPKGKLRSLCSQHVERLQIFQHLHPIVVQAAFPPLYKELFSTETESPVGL
# Assay: RORgT Gal4 Luciferase Reporter Gene Assay
# Format: cell-based
# Conditions: engineered Jurkat cells overexpressing RORgT (LBD or full length) fused with Gal4 Luc reporter; 18 hours at 37° C.; luminescence
# Protocol: RORgT Gal4 Luciferase Reporter Gene Assay
# 25 µL of cryopreserved Jurkat cells over expressing ligand binding domain (LBD) of RORgT (aa267-516, NM_005060) and Gal4 Luc, or full length of human RORgT and Gal4 Luc, were plated in 384-well solid white cell culture plates (PerkinElmer 6007899), with a density of 10,000 cells/well in RPMI 1640 cell culture media (Gibco 11875-085). The media contained 0.1% BSA, 10 mM HEPES (Gibco 15360-080), […] Sodium Pyruvate (Gibco 11360-040), […] Hygromycin B (Invitrogen 10687-010), and […] Blasticidin (Invitrogen R210-01).
# 100 nL of compound at varying concentrations in 3-fold serial dilution, with final concentrations ranging from 40 µM to 0.67 nM, were added to the cells using Labcyte Echo 550. The compound and the cells were incubated for 18 hours at 37° C. in a cell culture incubator. Cells were then lysed with 15 uL of Steady-Glo Luciferase Assay reagent (Promega EZ550), followed by centrifuging the assay plates at 1500 RPM for 1 minute. Subsequently, the plates were read on the Envision (PerkinElmer). The inhibition of constitutive activity of RORgT achieved by graded concentrations of compound was calculated as a percentage of the luminescence signal window reduction over a control compound.
row,Structure (SMILES),EC50 [nM]
1,"CC1(CN2CC[C@@]3(S(=O)(=O)c4ccc(F)cc4)c4ccc(OCc5c(F)cccc5C(F)(F)F)cc4CC[C@@H]23)CCNCC1 [Example 45, 4-{ [(3aR,9bR)-7-{ [2-fluoro-6-(trifluoromethyl)phenyl]methoxy} -9b-(4-fluorobenzenesulfonyl)-1H,2H,3H,3aH,4H,5H,9bH-benzo[e]indol-3-yl]methyl}-4-methylpiperidine]",306
2,"O=C(C1CCS(=O)(=O)C1)N1CC[C@@]2(S(=O)(=O)c3ccc(F)cc3)c3ccc(OCc4c(Cl)cccc4Cl)cc3CC[C@@H]12 (stereo partly drawn) [Example 170, 3-[(3aR,9bR)-7-[(2,6-dichlorophenyl)methoxy]-9b-(4-fluorobenzenesulfonyl)-1H,2H,3H,3aH,4H,5H,9bH-benzo[e]indole-3-carbonyl]-1λ^6-thiolane-1,1-dione]",14
3,"CS(=O)(=O)CC(=O)N1CC[C@@]2(S(=O)(=O)c3ccc(F)cc3)c3ccc(OCc4cc(F)c(F)cc4Cl)cc3CC[C@@H]12 [Example 216, 1-[(3aR,9bR)-7-[(2-chloro-4,5-difluorophenyl)methoxy]-9b-(4-fluorobenzenesulfonyl)-1H,2H,3H,3aH,4H,5H,9bH-benzo[e]indol-3-yl]-2-methanesulfonylethan-1-one]",266
4,"O=C(O)[C@H]1CC[C@H](C(=O)N2CC[C@@]3(S(=O)(=O)c4ccccc4)c4ccc(OCc5ccccc5)cc4CC[C@@H]23)CC1 [Example 54, (1r,4r)-4-[(3aR,9bR)-9b-(benzenesulfonyl)-7-(benzyloxy)-1H,2H,3H,3aH,4H,5H,9bH-benzo[e]indole-3-carbonyl]cyclohexane-1-carboxylic acid]",290
5,"CC1(O)CN(C(=O)N2CC[C@@]3(S(=O)(=O)c4ccccc4)c4ccc(OCc5c(Cl)cccc5Cl)cc4CC[C@@H]23)C1 [Example 83, 1-[(3aR,9bR)-9b-(benzenesulfonyl)-7-[(2,6-dichlorophenyl)methoxy]-1H,2H,3H,3aH,4H,5H,9bH-benzo[e]indole-3-carbonyl]-3-methylazetidin-3-ol]",353
6,"O=C(O)[C@H]1CC[C@H](C(=O)N2CC[C@@]3(S(=O)(=O)c4ccc(F)cc4)c4ccc(Oc5c(F)cccc5C(F)(F)F)cc4CC[C@@H]23)CC1 [Example 4, (1R,4r)-4-((3aR,9bR)-7-(2-fluoro-6-(trifluoromethyl)phenoxy)-9b-((4-fluorophenyl)sulfonyl)-2,3,3a,4,5,9b-hexahydro-1H-benzo[e]indole-3-carbonyl)cyclohexane-1-carboxylic acid]",10
7,"O=C(O)[C@H]1CC[C@H](C(=O)N2CC[C@@]3(S(=O)(=O)c4ccc(F)cc4)c4ccc(Oc5c(F)ccnc5F)cc4CC[C@@H]23)CC1 [Example 115, (1r,4r)-4-[(3aR,9bR)-7-[(2,4-difluoropyridin-3-yl)oxy]-9b-(4-fluorobenzenesulfonyl)-1H,2H,3H,3aH,4H,5H,9bH-benzo[e]indole-3-carbonyl]cyclohexane-1-carboxylic acid]",25
8,"O=C(O)[C@H]1CC[C@H](C(=O)N2CC[C@@]3(S(=O)(=O)c4ccc(F)cc4)c4ccc(COc5c(Cl)cccc5Cl)cc4CC[C@@H]23)CC1 [Example 6, (1R,4r)-4-((3aR,9bR)-7-((2,6-dichlorophenoxy)methyl)-9b-((4-fluorophenyl)sulfonyl)-2,3,3a,4,5,9b-hexahydro-1H-benzo[e]indole-3-carbonyl)cyclohexanecarboxylic acid]",2.4
9,"O=C(C1CCS(=O)(=O)C1)N1CC[C@@]2(S(=O)(=O)c3ccc(F)cc3)c3ccc(OCc4cc(F)ccc4Cl)cc3CC[C@@H]12 (stereo partly drawn) [Example 178, 3-[(3aR,9bR)-7-[(2-chloro-5-fluorophenyl)methoxy]-9b-(4-fluorobenzenesulfonyl)-1H,2H,3H,3aH,4H,5H,9bH-benzo[e]indole-3-carbonyl]-1λ^6-thiolane-1,1-dione]",12
10,"CS(=O)(=O)n1cc(C(=O)N2CC[C@@]3(S(=O)(=O)c4ccccc4)c4ccc(OCc5c(Cl)cccc5Cl)cc4CC[C@@H]23)cn1 [Example 99, 4-[(3aR,9bR)-9b-(benzenesulfonyl)-7-[(2,6-dichlorophenyl)methoxy]-1H,2H,3H,3aH,4H,5H,9bH-benzo[e]indole-3-carbonyl]-1-methanesulfonyl-1H-pyrazole]",748
11,"CC(=O)N1CCC(C(=O)N2CC[C@@]3(S(=O)(=O)c4ccc(F)cc4)c4ccc(OCc5c(F)cccc5Cl)cc4CC[C@@H]23)CC1 [Example 167, 1-{4-[(3aR,9bR)-7-[(2-chloro-6-fluorophenyl)methoxy]-9b-(4-fluorobenzenesulfonyl)-1H,2H,3H,3aH,4H,5H,9bH-benzo[e]indole-3-carbonyl]piperidin-1-yl}ethan-1-one]",13
12,"CC(C#N)CN1C(=O)CC[C@H]1C(=O)N1CC[C@@]2(S(=O)(=O)c3ccc(F)cc3)c3ccc(OCc4c(F)cccc4C(F)(F)F)cc3CC[C@@H]12 (stereo partly drawn) [Example 29, 3-[(2S)-2-[(3aR,9bR)-7-{[2-fluoro-6-(trifluoromethyl)phenyl]methoxy} -9b-(4-fluorobenzenesulfonyl)-1H,2H,3H,3aH,4H,5H9bH-benzo[e]indole-3-carbonyl]-5-oxopyrrolidin-1-yl]-2-methylpropanenitrile]",3.6
13,"CS(=O)(=O)CC(=O)N1CC[C@@]2(S(=O)(=O)c3ccc(F)cc3)c3ccc(OCc4c(Cl)cccc4Cl)cc3CC[C@@H]12 [Example 191, 1-[(3 aR,9bR)-7-[(2,6-dichlorophenyl)methoxy] -9b-(4-fluorobenzenesulfonyl)-1H,2H,3H,3aH,4H,5H,9bH-benzo[e]indol-3-yl]-2-methanesulfonylethan-1-one]",134
14,"CC(=O)N1CCC(C)(CN2CC[C@@]3(S(=O)(=O)c4ccc(F)cc4)c4ccc(OCc5c(F)cccc5C(F)(F)F)cc4CC[C@@H]23)CC1 [Example 52, 1-(4-{[(3aR,9bR)-7-{[2-fluoro-6-(trifluoromethyl)phenyl]methoxy} -9b-(4-fluorobenzenesulfonyl)-1H,2H3H,3aH,4H,5H,9bH-benzo[e]indol-3-yl]methyl}-4-methylpiperidin-1-yl)ethan-1-one]",24
15,"COC(=O)[C@H]1CC[C@H](C(=O)N2CC[C@@]3(S(=O)(=O)c4ccc(F)cc4)c4ccc(OCc5cc(F)ccc5Cl)cc4CC[C@@H]23)CC1 [Example 176, methyl (1r,4r)-4-[(3aR,9bR)-7-[(2-chloro-5-fluorophenyl)methoxy]-9b-(4-fluorobenzenesulfonyl)-1H,2H,3H,3aH,4H,5H,9bH-benzo[e]indole-3-carbonyl]cyclohexane-1-carboxylate]",56
16,"O=C(C1CCS(=O)(=O)CC1)N1CC[C@@]2(S(=O)(=O)c3ccc(F)cc3)c3ccc(Oc4c(F)cccc4Cl)cc3CC[C@@H]12 [Example 38, 4-[(3aR,9bR)-7-(2-chloro-6-fluorophenoxy)-9b-(4-fluorobenzenesulfonyl)-1H,2H,3H,3aH,4H,5H,9bH-benzo[e]indole-3-carbonyl]-1λ^6-thiane-1,1-dione]",1.1
17,"O=C1CC[C@H](C(=O)N2CC[C@@]3(S(=O)(=O)c4ccccc4)c4ccc(OCc5c(F)cccc5Cl)cc4CC[C@@H]23)N1 [Example 143, (5R)-5-[(3aR,9bR)-9b-(benzenesulfonyl)-7-[(2-chloro-6-fluorophenyl)methoxy]-1H,2H,3H,3aH,4H,5H,9bH-benzo[e]indole-3-carbonyl]pyrrolidin-2-one]",195
18,"CC(=O)N1CCN(C(=O)N2CC[C@@]3(S(=O)(=O)c4ccccc4)c4ccc(OCc5c(Cl)cccc5Cl)cc4CC[C@@H]23)CC1 [Example 94, 1-{4-[(3aR,9bR)-9b-(benzenesulfonyl)-7-[(2,6-dichlorophenyl)methoxy]-1H,2H,3H,3aH,4H,5H,9bH-benzo[e]indole-3-carbonyl]piperazin-1-yl}ethan-1-one]",15
19,"O=C(C1CCS(=O)(=O)CC1)N1CC[C@@]2(S(=O)(=O)c3ccccc3)c3ccc(OCc4c(Cl)cccc4Cl)cc3CC[C@@H]12 [Example 126, 4-[(3aR,9bR)-9b-(benzenesulfonyl)-7-[(2,6-dichlorophenyl)methoxy]-1H,2H,3H,3aH,4H,5H,9bH-benzo[e]indole-3-carbonyl]-1λ^6-thiane-1,1-dione]",8.5
20,"O=C(C1CCS(=O)(=O)CC1)N1CC[C@@]2(S(=O)(=O)c3ccc(F)cc3)c3ccc(Oc4cccnc4F)cc3CC[C@@H]12 [Example 117, 4-[(3aR,9bR)-9b-(4-fluorobenzenesulfonyl)-7-[(2-fluoropyridin-3-yl)oxy]-1H,2H,3H,3aH,4H,5H,9bH-benzo[e]indole-3-carbonyl]-1λ^6-thiane-1,1-dione]",7.1
21,"NC(=O)N1CCC(C(=O)N2CC[C@@]3(S(=O)(=O)c4ccc(F)cc4)c4ccc(OCc5cc(Cl)ccc5Cl)cc4CC[C@@H]23)CC1 [Example 202, 4-[(3aR,9bR)-7-[(2,5-dichlorophenyl)methoxy]-9b-(4-fluorobenzenesulfonyl)-1H,2H,3H,3aH,4H,5H,9bH-benzo[e]indole-3-carbony1]piperidine-1-carboxamide]",15

# Reference: patent US20230295087A1, “AGONISTS OF ROR GAMMAt” (BRISTOL-MYERS SQUIBB COMPANY, priority 2019, published 2023)
